Measured values as given in US9066518B2, “Heterocyclic compounds as pesticides” (Bayer CropScience AG, priority 2009, dated 2015).
Like-named read-outs stand apart in the source and are kept apart here.

Assays:
[1] = logP determination (neutral / HCOOH); details: for chromatographic logP: HCOOH (formic acid)
[2] = tested on: green peach aphid (Myzus persicae); assay: Myzus test (spray treatment); type: in vivo; details: foliar, 144 h, read-out: activity (effect in %, aphids killed)
Method: Solvents: 78 parts by weight of acetone
• 1.5 parts by weight of dimethylformamide Emulsifier 0.5 part by weight of alkylaryl polyglycol ether
To produce a suitable preparation of active compound, 1 part by weight of active compound is mixed with the stated amounts of solvents and emulsifier, and the concentrate is diluted with emulsifier-containing water to the desired concentration. Discs of leaves of Chinese cabbage (Brassica pekinensis) which are infested by all stages of the green peach aphid (Myzus persicae) are sprayed with an active compound preparation of the desired concentration.
After 6 days, the effect in % is determined. 100% means that all aphids have been killed; 0% means that none of the aphids has been killed.

[3] = application rate 500 g/ha, after 6 days, Chinese cabbage leaf discs

NC(=S)c1cccc(-c2cnn(-c3cccnc3)c2)n1 [6-(1-Pyridin-3-yl-1H-pyrazol-4-yl)pyridine-2-carbothioamide]
logP ([1]; logP (neutral), neutral): 1.77

CC1CC(C)OC(c2cccc(-c3cnn(-c4cccnc4)c3)n2)O1 (stereo not shown) [Example 71]
chromatographic logP ([1]; logP (HCOOH), HCOOH): 2.37 | pest or weed control at 500 g/ha [2, 3]: 100%

N#CCNC(=O)c1ccc(-c2cnn(-c3cccnc3)c2)nc1 [Example 97]
chromatographic logP ([1]; logP (HCOOH), HCOOH): 0.95 | logP ([1]; logP (neutral), neutral): 1.2 | pest or weed control at 500 g/ha [2, 3]: 90%

c1cncc(-n2cc(-c3cccc(C4OCCCO4)n3)cn2)c1 [Example 13]
chromatographic logP ([1]; logP (HCOOH), HCOOH): 1.59 | pest or weed control at 500 g/ha [2, 3]: 90%

FC(F)(F)c1cccc(-c2cnn(-c3cncnc3)c2)n1 [Example 107]
chromatographic logP ([1]; logP (HCOOH), HCOOH): 2.36 | logP ([1]; logP (neutral), neutral): 2.38 | pest or weed control at 500 g/ha [2, 3]: 90%

CN(C)/C=C/C(=O)c1cnn(-c2cccnc2)c1 [(2E)-3-(Dimethylamino)-1-[1-(pyridin-3-yl)-1H-pyrazol-4-yl]prop-2-en-1-one]
logP ([1]; HCOOH, logP (HCOOH)): 0.93

CCOC(=O)c1cccc(-c2cnn(-c3cccnc3)c2)n1 [Example 99]
chromatographic logP ([1]; logP (HCOOH), HCOOH): 1.83 | logP ([1]; logP (neutral), neutral): 1.96 | pest or weed control at 500 g/ha [2, 3]: 100%

Cc1nc(-c2cccc(-c3cnn(-c4cccnc4)c3)n2)no1 [Example 70]
chromatographic logP ([1]; logP (HCOOH), HCOOH): 1.66 | pest or weed control at 500 g/ha [2, 3]: 100%

c1cncc(-n2cc(-c3ccncc3)cn2)c1 [Example 101]
chromatographic logP ([1]; logP (HCOOH), HCOOH): 0.01 | logP ([1]; logP (neutral), neutral): 1.24 | pest or weed control at 500 g/ha [2, 3]: 100%

COc1ccc(-c2cnn(-c3cccnc3)c2)cc1 [Example 53]
chromatographic logP ([1]; logP (HCOOH), HCOOH): 2.12

CC(F)(F)c1cccc(-c2cnn(-c3cccnc3)c2)n1 [Example 29]
chromatographic logP ([1]; logP (HCOOH), HCOOH): 2.46 | pest or weed control at 500 g/ha [2, 3]: 90%

CC(=O)c1cnn(-c2cccnc2)c1 [1-[1-(Pyridin-3-yl)-1H-pyrazol-4-yl]ethanone]
chromatographic logP ([1]; logP (HCOOH), HCOOH): 0.76

CC(C)C(=O)c1cccc(-c2cnn(-c3cccnc3)c2)n1 [Example 67]
logP ([1]; logP (neutral), neutral): 2.84 | pest or weed control at 500 g/ha [2, 3]: 100%

c1cncc(-n2cc(-c3cccc(-c4nnn[nH]4)n3)cn2)c1 [Example 96]
chromatographic logP ([1]; logP (HCOOH), HCOOH): 1.36 | logP ([1]; logP (neutral), neutral): 0.32 | pest or weed control at 500 g/ha [2, 3]: 90%

CCOc1cc(OCC)nc(-c2nccc(-c3cnn(-c4cccnc4)c3)n2)n1 [Example 82]
chromatographic logP ([1]; logP (HCOOH), HCOOH): 2.23 | pest or weed control at 500 g/ha [2, 3]: 100%

Cn1cnc(-c2cccc(-c3cnn(-c4cccnc4)c3)n2)n1 [Example 6, 2-(1-Methyl-1H-[1,2,4]triazol-3-yl)-6-(1-pyridin-3-yl-1H-pyrazol-4-yl)pyridine]
logP ([1]; logP (neutral), neutral): 1.29 | pest or weed control at 500 g/ha [2, 3]: 100%

N=C(NO)c1cccc(-c2cnn(-c3cccnc3)c2)n1 [N-Hydroxy-6-(1-pyridin-3-yl-1H-pyrazol-4-ylpyridine-2-carboxamidine]
logP ([1]; logP (neutral), neutral): 1.23

Brc1cncc(-n2cc(-c3cccc(-c4ncccn4)n3)cn2)c1 [Example 111]
chromatographic logP ([1]; logP (HCOOH), HCOOH): 2.17

c1ccc(-c2csc(-c3cnn(-c4cccnc4)c3)n2)nc1 [Example 47]
chromatographic logP ([1]; logP (HCOOH), HCOOH): 1.55 | pest or weed control at 500 g/ha [2, 3]: 100%

FC(F)(F)c1ccc(-n2ccc(-c3cnn(-c4cccnc4)c3)n2)nc1 [Example 43]
chromatographic logP ([1]; logP (HCOOH), HCOOH): 3.22 | pest or weed control at 500 g/ha [2, 3]: 90%

CC1OC(c2cccc(-c3cnn(-c4cccnc4)c3)n2)OC1C (stereo not shown) [Example 72]
logP (HCOOH) ([1]; HCOOH): 2.09 | chromatographic logP ([1]; logP (HCOOH), HCOOH): 2.13 | pest or weed control at 500 g/ha [2, 3]: 100%

N#Cc1cccc(-c2cnn(-c3cncc(F)c3)c2)n1 [Example 108]
chromatographic logP ([1]; logP (HCOOH), HCOOH): 2.2 | pest or weed control at 500 g/ha [2, 3]: 90%

Nc1cccc(-c2cnn(-c3cccnc3)c2)n1 [Example 86]
chromatographic logP ([1]; logP (HCOOH), HCOOH): 0.29 | logP ([1]; logP (neutral), neutral): 1.3 | pest or weed control at 500 g/ha [2, 3]: 100%

CN(C)C(=O)c1cccc(-c2cnn(-c3cccnc3)c2)n1 [Example 17]
chromatographic logP ([1]; logP (HCOOH), HCOOH): 1.24 | pest or weed control at 500 g/ha [2, 3]: 100%

c1cncc(-n2cc(-c3cccc(-c4nc[nH]n4)n3)cn2)c1 [Example 64]
chromatographic logP ([1]; logP (HCOOH), HCOOH): 1.14 | pest or weed control at 500 g/ha [2, 3]: 100%

c1cncc(-n2cc(-c3cccc(C4=NOCCO4)n3)cn2)c1 [Example 55]
chromatographic logP ([1]; logP (HCOOH), HCOOH): 1.4 | pest or weed control at 100 g/ha ([2]; application rate 100 g/ha, after 6 days, Chinese cabbage leaf discs): 100%

c1cncc(-n2cc(-c3cccc(C4OCCO4)n3)cn2)c1 [Example 36]
chromatographic logP ([1]; logP (HCOOH), HCOOH): 1.5 | pest or weed control at 500 g/ha [2, 3]: 100%

COCC1(c2cccc(-c3cnn(-c4cccnc4)c3)n2)OCCCO1 [Example 49]
logP ([1]; logP (neutral), neutral): 1.69 | pest or weed control at 500 g/ha [2, 3]: 100%

FC(F)(F)c1nccc(-c2cnn(-c3cccnc3)c2)n1 [Example 15]
chromatographic logP ([1]; logP (HCOOH), HCOOH): 2.13 | pest or weed control at 500 g/ha [2, 3]: 100%

CS(=O)(=O)c1cccc(-c2cnn(-c3cccnc3)c2)n1 [Example 56]
chromatographic logP ([1]; logP (HCOOH), HCOOH): 1.31 | pest or weed control at 500 g/ha [2, 3]: 100%

FC(F)CNc1cccc(-c2cnn(-c3cccnc3)c2)n1 [Example 48]
chromatographic logP ([1]; logP (HCOOH), HCOOH): 1.52 | pest or weed control at 500 g/ha [2, 3]: 100%

c1cnc(-c2ccn(-c3cnn(-c4cccnc4)c3)n2)nc1 [Example 2, 1′-(Pyridin-3-yl)-3-(pyrimidin-2-yl)-1′H-1,4′-bipyrazole]
logP ([1]; HCOOH, logP (HCOOH)): 1.18 | pest or weed control at 500 g/ha [2, 3]: 100%

CC1(c2cccc(-c3cnn(-c4cccnc4)c3)n2)OCCO1 [Example 10, 2-(2-Methyl-1,3-dioxolan-2-yl)-6-(1-pyridin-3-yl-1H-pyrazol-4-yl)pyridine]
logP ([1]; logP (neutral), neutral): 1.89 | pest or weed control at 500 g/ha ([2]; in Brassica rapa): 100%

c1cncc(-n2cc(-c3nccs3)cn2)c1 [Example 95]
chromatographic logP ([1]; logP (HCOOH), HCOOH): 1.32 | pest or weed control at 500 g/ha [2, 3]: 90%

c1cnc(-c2cc[nH]n2)nc1 [2-(1H-Pyrazol-3-yl)pyrimidine]
chromatographic logP ([1]; logP (HCOOH), HCOOH): 0.1

c1cncc(-n2cc(-c3cccc(-c4noc(C5CC5)n4)n3)cn2)c1 [Example 62]
chromatographic logP ([1]; logP (HCOOH), HCOOH): 2.16 | pest or weed control at 500 g/ha [2, 3]: 100%

COc1cccc(-c2cnn(-c3cccnc3)c2)n1 [Example 38]
chromatographic logP ([1]; logP (HCOOH), HCOOH): 2.12 | pest or weed control at 500 g/ha [2, 3]: 100%

COCC(F)c1cccc(-c2cnn(-c3cccnc3)c2)n1 (stereo not shown) [Example 92]
logP ([1]; logP (neutral), neutral): 1.98 | pest or weed control at 500 g/ha [2, 3]: 90%

Fc1cncc(-n2cc(-c3cccc(C4OCCCO4)n3)cn2)c1 [Example 73]
chromatographic logP ([1]; logP (HCOOH), HCOOH): 2.12 | logP ([1]; logP (neutral), neutral): 2.13 | pest or weed control at 500 g/ha [2, 3]: 100%

COCC(=O)c1cccc(-c2cnn(-c3cccnc3)c2)n1 [Example 85, 2-Methoxy-1-[6-(1-pyridin-3-yl-1H-pyrazol-4-yl)pyridin-2-yl]ethanone]
logP ([1]; HCOOH, logP (HCOOH)): 1.66 | pest or weed control at 500 g/ha [2, 3]: 100%

O=C1CCCN1c1cccc(-c2cnn(-c3cccnc3)c2)n1 [Example 80]
chromatographic logP ([1]; logP (HCOOH), HCOOH): 1.86

Clc1cccc(-c2cnn(-c3cccnc3)c2)n1 [Example 20]
chromatographic logP ([1]; logP (HCOOH), HCOOH): 2.05

Brc1cccc(-c2ncccn2)n1 [2-(6-Bromopyridin-2-yl)pyrimidine]
chromatographic logP ([1]; logP (HCOOH), HCOOH): 1.3

CC(=O)c1cccc(-c2cnn(-c3cccnc3)c2)n1 [1-[6-(1-Pyridin-3-yl-1H-pyrazol-4-yl)pyridin-2-yl]ethanone]
logP ([1]; logP (neutral), neutral): 1.94

CON(C)C(=O)c1cnn(-c2cccnc2)c1 [N-Methoxy-N-methyl-1-(pyridin-3-yl)-1H-pyrazole-4-carboxamide]
logP ([1]; HCOOH, logP (HCOOH)): 0.91

N=C(NO)c1cccc(-c2cnn(-c3cccnc3)c2)n1 [Example 114]
chromatographic logP ([1]; logP (HCOOH), HCOOH): 0.86

CC1(C)OB(c2cnn(-c3cncc(F)c3)c2)OC1(C)C [VI-2]
chromatographic logP ([1]; logP (HCOOH), HCOOH): 2.88

N=C(N)c1cccc(-c2cnn(-c3cccnc3)c2)n1 [6-(1-Pyridin-3-yl-1H-pyrazol-4-yl)pyridine-2-carboxamidine]
logP ([1]; logP (neutral), neutral): 1.99

CC1(C)COC(c2cccc(-c3cnn(-c4cccnc4)c3)n2)OC1 [Example 104]
chromatographic logP ([1]; logP (HCOOH), HCOOH): 2.44 | logP ([1]; logP (neutral), neutral): 2.55

FC(F)(F)c1cccc(-n2ccc(-c3cnn(-c4cccnc4)c3)n2)n1 [Example 41]
chromatographic logP ([1]; logP (HCOOH), HCOOH): 3.18

c1cncc(-n2cc(-c3ccncn3)cn2)c1 [Example 113]
chromatographic logP ([1]; logP (HCOOH), HCOOH): 0.89

FC(F)(F)c1cccc(-c2cnn(-c3cccnc3)c2)c1 [Example 52]
chromatographic logP ([1]; logP (HCOOH), HCOOH): 2.99

COCC(=O)c1cccc(Br)n1 [1-(6-Bromopyridin-2-yl)-2-methoxyethanone]
logP ([1]; logP (neutral), neutral): 1.73

O=C1CCCCN1c1cccc(-c2cnn(-c3cccnc3)c2)n1 [Example 81]
chromatographic logP ([1]; logP (HCOOH), HCOOH): 1.59

CC1(C)OB(c2cnn(-c3cncnc3)c2)OC1(C)C [VI-3]
chromatographic logP ([1]; logP (HCOOH), HCOOH): 2.1
